Measurements from ChEMBL document CHEMBL4680250, “Identification of tetracyclic lactams as NMDA receptor antagonists with potential application in neurological disorders” (Eur J Med Chem, 2020).

Key:
Glutamate NMDA receptor [1] = assay: Antagonist activity at NMDAR in embryonic cultures of rat cortical neuron assessed as inhibition of NMDA-induced calcium influx at 30 uM preincubated for 10 mins followed by NMDA addition by Fluo-4/AM dye based fluorescence assay relative to control; format: tissue-based
Glutamate NMDA receptor [2] = assay: Antagonist activity at NMDAR in embryonic cultures of rat cortical neuron assessed as inhibition of NMDA-induced calcium influx preincubated for 10 mins followed by NMDA addition by Fluo-4/AM dye based fluorescence assay; format: tissue-based
HEK293 = assay: Cytotoxicity against HEK293 cells assessed as reduction in cell viability by MTT assay; format: cell-based; details: Homo sapiens
HepG2 = assay: Cytotoxicity against human HepG2 cells assessed as reduction in cell viability by MTT assay; format: cell-based
[3] = Permeability of compound in PBS at pH 7.4 incubated for 120 mins by UV spectroscopy assay based PAMPA-BBB assay; format: ADME; details: read-out: permeability
[4] = target: Glutamate [NMDA] receptor; assay: Binding affinity to NMDAR (unknown origin); format: protein-complex assay, Homo sapiens

SMILES | IC50 (Glutamate NMDA receptor [1]; read-out: IC50) [µM] | IC50 (Glutamate NMDA receptor [2]) [µM] | IC50 (HEK293) [µM] | IC50 (HepG2) [µM] | Papp at 2 h [3] [×10⁻⁶ cm/s] | Ki [4] [µM] | IC50 (Glutamate NMDA receptor [1])
O=C1CC[C@@]2(c3ccc(F)cc3)O[C@@H]3Cc4ccccc4[C@@H]3N12 | 56 | 17 | > 100 | > 100 | 24.2 |  | 
C[C@@H]1CC(=O)N2[C@H]3c4ccccc4C[C@@H]3O[C@@]12c1ccc(Cl)cc1 | 32 |  |  |  |  |  | 
C[C@H]1CC(=O)N2[C@H]3c4ccccc4C[C@H]3O[C@]12c1ccc(Cl)cc1 | 80 | 17 | > 100 | > 100 |  |  | 
Cc1ccc([C@@]23CCC(=O)N2[C@H]2c4ccccc4C[C@H]2O3)cc1 | 46 | 24 |  |  |  |  | 
C[C@H]1CC(=O)N2[C@H]3c4ccccc4C[C@@H]3O[C@@]12c1ccc(Cl)cc1 | 62 | 23 |  |  |  |  | 
O=C1CC[C@]2(c3ccc(F)cc3)O[C@H]3Cc4ccccc4[C@@H]3N12 | 61 | 15 | > 100 | > 100 |  |  | 
C[C@@H]1CC(=O)N2[C@H]3c4ccccc4C[C@H]3O[C@]12c1ccc(Cl)cc1 | 69 | 13 | 46 | 34 |  |  | 
c1ccc2c(c1)C[C@H]1N[C@@H]2c2ccccc21 |  |  |  |  |  | 0.0372 | 
COc1ccc([C@@]23CCC(=O)N2[C@H]2c4ccccc4C[C@H]2O3)cc1 | 4 |  |  |  |  |  | 
CS(=O)(=O)c1ccc([C@@]23CCC(=O)N2[C@H]2c4ccccc4C[C@H]2O3)cc1 |  |  |  |  |  |  | Not Active
O=C1CC[C@@]2(c3ccc(Cl)cc3)O[C@@H]3Cc4ccccc4[C@@H]3N12 | 82 | 17 | > 100 | > 100 | 19.2 |  | 
CC[C@@]1(c2ccccc2Cl)CCCCC1=O |  |  |  |  |  | 0.659 | 
O=C1CC[C@]2(c3ccc(Cl)cc3)O[C@H]3Cc4ccccc4[C@@H]3N12 | 65 | 13 | > 100 | > 100 | 15.8 |  | 
O=C1CC[C@@]2(c3ccc(Br)cc3)O[C@@H]3Cc4ccccc4[C@@H]3N12 | 73 | 16 | > 100 | > 100 | 12.3 |  | 
O=C1CC[C@]2(c3ccc(Br)cc3)O[C@H]3Cc4ccccc4[C@@H]3N12 | 66 | 11 | > 100 | > 100 | 11.2 |  | 
O=C1CC[C@@]2(c3ccccc3)O[C@H]3Cc4ccccc4[C@@H]3N12 | 29 |  |  |  |  |  | 
Cc1ccc([C@@]23CCC(=O)N2[C@H]2c4ccccc4C[C@H]2O3)cc1Cl | 63 | 12 | > 100 | > 100 |  |  | 
O=C1CCC[C@@]2(c3ccccc3)O[C@@H]3Cc4ccccc4[C@@H]3N12 | 13 |  |  |  |  |  | 
COc1ccc([C@@]23CCC(=O)N2[C@H]2c4ccccc4CC2O3)cc1F (single isomer, unassigned) | 13 |  |  |  |  |  | 
Cc1ccc([C@]23CCC(=O)N2C2c4ccccc4C[C@@H]2O3)cc1Cl (single isomer, unassigned) | 49 |  |  |  |  |  | 
N[C@@H](Cc1ccccn1)c1ccccc1 [LANICEMINE] |  |  |  |  |  | 0.56 | 
c1ccc(C2(N3CCCCC3)CCCCC2)cc1 [PHENCYCLIDINE] |  |  |  |  |  | 0.059 | 
